Data as given in patent publication US12465605B2, “Methods and materials for gender-dependent treatment of cardiovascular dysfunction” (Mayo Foundation for Medical Education and Research, priority 2019, dated 2025).

Legend:
sGC = biological target: T1, sGC (Mus musculus, UniProt O54865); assay: sGC signaling (phospho-VASP239) in mouse aortic valve interstitial cells; assay type: cell-based; conditions: otherwise naïve mVICs, vs vehicle-treated cells
T1 construct: endogenous in cells; host or cells: primary mouse aortic valve interstitial cells (mVICs) from C57BL6/J mice
T1 sequence (O54865 1-620): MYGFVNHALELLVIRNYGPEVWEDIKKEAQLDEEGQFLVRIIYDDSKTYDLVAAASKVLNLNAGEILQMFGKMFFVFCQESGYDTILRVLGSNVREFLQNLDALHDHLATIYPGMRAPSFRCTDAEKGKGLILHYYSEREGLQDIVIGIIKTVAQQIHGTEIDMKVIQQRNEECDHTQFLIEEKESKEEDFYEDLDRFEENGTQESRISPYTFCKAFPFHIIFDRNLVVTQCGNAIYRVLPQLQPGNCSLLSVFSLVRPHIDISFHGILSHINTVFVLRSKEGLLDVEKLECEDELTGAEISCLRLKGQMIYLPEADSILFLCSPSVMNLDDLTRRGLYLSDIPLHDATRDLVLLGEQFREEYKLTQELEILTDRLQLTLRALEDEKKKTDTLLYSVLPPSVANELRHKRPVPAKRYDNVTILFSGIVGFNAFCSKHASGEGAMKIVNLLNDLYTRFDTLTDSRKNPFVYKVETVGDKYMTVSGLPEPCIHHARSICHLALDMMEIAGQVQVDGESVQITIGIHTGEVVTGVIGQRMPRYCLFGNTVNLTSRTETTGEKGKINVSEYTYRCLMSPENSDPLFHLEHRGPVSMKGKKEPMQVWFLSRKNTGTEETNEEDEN
T1 sequence (Q9ERL9 1-691 partner): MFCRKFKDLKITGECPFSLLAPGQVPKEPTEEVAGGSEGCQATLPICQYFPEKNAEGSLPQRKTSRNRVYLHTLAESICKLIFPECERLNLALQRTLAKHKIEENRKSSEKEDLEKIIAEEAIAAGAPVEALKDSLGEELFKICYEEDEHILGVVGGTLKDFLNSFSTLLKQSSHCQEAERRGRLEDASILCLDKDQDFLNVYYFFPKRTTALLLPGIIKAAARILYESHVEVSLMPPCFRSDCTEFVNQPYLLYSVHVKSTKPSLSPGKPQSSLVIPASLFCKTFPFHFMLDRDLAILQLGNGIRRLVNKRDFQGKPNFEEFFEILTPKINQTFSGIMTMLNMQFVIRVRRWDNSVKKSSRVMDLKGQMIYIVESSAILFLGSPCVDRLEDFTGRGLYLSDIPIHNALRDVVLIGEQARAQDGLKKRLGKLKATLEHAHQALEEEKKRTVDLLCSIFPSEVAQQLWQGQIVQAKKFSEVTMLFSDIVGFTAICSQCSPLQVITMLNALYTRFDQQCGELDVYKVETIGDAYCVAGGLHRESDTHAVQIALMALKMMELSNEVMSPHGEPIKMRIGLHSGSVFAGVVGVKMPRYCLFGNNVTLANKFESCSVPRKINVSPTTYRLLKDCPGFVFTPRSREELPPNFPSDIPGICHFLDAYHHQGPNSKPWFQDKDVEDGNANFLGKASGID
Protocol: (§1) To confirm that ataciguat effectively activated sGC in cells, mouse aortic valve interstitial cells (mVICs) were isolated from C57BL6/J mice treated with ataciguat or other sGC agonists as internal controls. […] To determine whether ataciguat could attenuate signaling cascades central to the initiation and progression of valve calcification in vitro, cells were treated with BMP2 with or without ataciguat. In these studies, ataciguat reduced phospho-SMAD1/5/8 signaling (e.g., canonical BMP signaling) as well as expression of osteogenic genes induced by BMP2 (e.g., osterix).

canonical BMP signaling = assay: BMP2-induced signaling in aortic valve interstitial cells; assay type: cell-based, mouse; conditions: cells treated with BMP2 with or without ataciguat
Protocol: as §1

[1] = test system: patients with mild-to-moderate calcific aortic valve stenosis; assay: Phase I clinical trial, 14 days, blood pressure and orthostatic tolerance; assay type: in vivo, human
Source text: Phase I clinical trial design: Patients with mild-to-moderate calcific aortic valve stenosis (valve area between 1.0 cm^2 and 2.0 cm^2) with well-preserved left ventricular function (ejection fraction>50%) were recruited for participation in a randomized, double-blind, placebo-controlled trial. After screening, patients were randomized into two groups: • (1) placebo treatment for 14 days, or • (2) ataciguat treatment for 14 days. Patients underwent a series of tests to assess baseline blood pressure (seated and supine body positions), orthostatic tolerance (transition to standing, tilt table testing), and blood tests to assess liver enzyme function.
Combining ataciguat's role as an activator of heme-free sGC with reports of increased systemic oxidative stress in patients with FCAVS (Mourino-Alvarez et al., Int. J Cardiol., 225:99-106 (2016)), it was conceivable that administration of ataciguat could elicit acute hypotension or increase propensity to experience orthostatic hypotension. To investigate this possibility, a randomized, double-blind, placebo-controlled, dose-escalation study was conducted to assess the effects of ataciguat on orthostatic tolerance using both a standing test (highly functional) and a tilt table test (highly sensitive).

[2] = test system: LPA-induced BMP signaling; assay: LPA-induced BMP signaling (Osterix mRNA) in aortic valve interstitial cells; assay type: cell-based; conditions: 18:0 lyso-PA with ataciguat
Protocol: In vitro cell culture studies: Aortic valve interstitial cells were isolated using an outgrowth method, and were expanded in DMEM/F-10 medium with 10% FBS and studied in passages 2-10. Cells were treated for 24 hours under each experimental condition, at which point mRNA was harvested using lysis buffer. After mRNA isolation and reverse transcription, gene expression was measured using quantitative real-time RT-PCR and Taqman primers. Changes in gene expression were assessed by the ddCt method and expressed as fold-change normalized to control conditions.
Additional studies were conducted in aortic valve interstitial cells to examine the effects of ataciguat on LPA-induced BMP signaling and BMP target gene expression. Cells were treated with 18:0 lyso-PA, with or without ataciguat, and Osterix mRNA levels were determined.

[3] = 14 days, vs pre-treatment or placebo

What does the source list for `O=C(Nc1ccc(S(=O)(=O)N2CCOCC2)cc1)c1cc(Cl)ccc1NS(=O)(=O)c1ccc(Cl)s1` [ataciguat, 5-chloro-2-[[(5-chloro-2-thienyl)sulfonyl]amino]-N-[4-(4-morpholinylsulfonyl)phenyl]-benzamide]?
sGC-dependent signaling (phospho-VASP^239 levels) (sGC): significantly increased; expression of osteogenic genes induced by BMP2 (e.g., osterix) (canonical BMP signaling): reduced; phospho-SMAD1/5/8 signaling (canonical BMP signaling) (canonical BMP signaling): reduced; seated systolic and diastolic blood pressure ([1]; 100 mg/day, 14 days): significantly reduced; seated systolic and diastolic blood pressure ([1]; 200 mg/day, 14 days): did not have a significant effect; supine systolic and diastolic blood pressure ([1]; 14 days): significantly reduced; changes in heart rate upon standing ([1]; 14 days, seated to standing): did not significantly or consistently alter; changes in systolic and diastolic blood pressure upon standing ([1]; 14 days, seated to standing): did not significantly or consistently alter; blood pressure responses to head-up tilt [1, 3]: did not consistently or significantly alter; heart rate responses to head-up tilt [1, 3]: did not consistently or significantly alter; resting blood pressure ([1]; either dose, 14 days): did not significantly alter; tolerability (side effects and blood pressure regulation) ([1]; humans): well tolerated; LPA effect on expression of Osterix [2]: dramatically suppressed
